Calls of active or inactive are those of the source.
Key:
Assay type in all cases: functional
INS1 = assay: INS-1E survival protection against cytokine death – cell-based, luminescence, retest, dose response (AID 449756); settings: Rattus norvegicus;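 also: cell death triggered by IL-1 beta plus TNF-alpha plus IFN-gamma mixture; protective hits raise ATP signal compared with cytokine alone wells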
[1] = target: T1, Replicative DNA helicase DnaB (Mycobacterium tuberculosis, UniProt P9WMR3); assay: DnaB intein splicing inhibitors, dose response, biochemical, cell-free fluorescence (AID 449749)
T1 sequence (P9WMR3 whole entry): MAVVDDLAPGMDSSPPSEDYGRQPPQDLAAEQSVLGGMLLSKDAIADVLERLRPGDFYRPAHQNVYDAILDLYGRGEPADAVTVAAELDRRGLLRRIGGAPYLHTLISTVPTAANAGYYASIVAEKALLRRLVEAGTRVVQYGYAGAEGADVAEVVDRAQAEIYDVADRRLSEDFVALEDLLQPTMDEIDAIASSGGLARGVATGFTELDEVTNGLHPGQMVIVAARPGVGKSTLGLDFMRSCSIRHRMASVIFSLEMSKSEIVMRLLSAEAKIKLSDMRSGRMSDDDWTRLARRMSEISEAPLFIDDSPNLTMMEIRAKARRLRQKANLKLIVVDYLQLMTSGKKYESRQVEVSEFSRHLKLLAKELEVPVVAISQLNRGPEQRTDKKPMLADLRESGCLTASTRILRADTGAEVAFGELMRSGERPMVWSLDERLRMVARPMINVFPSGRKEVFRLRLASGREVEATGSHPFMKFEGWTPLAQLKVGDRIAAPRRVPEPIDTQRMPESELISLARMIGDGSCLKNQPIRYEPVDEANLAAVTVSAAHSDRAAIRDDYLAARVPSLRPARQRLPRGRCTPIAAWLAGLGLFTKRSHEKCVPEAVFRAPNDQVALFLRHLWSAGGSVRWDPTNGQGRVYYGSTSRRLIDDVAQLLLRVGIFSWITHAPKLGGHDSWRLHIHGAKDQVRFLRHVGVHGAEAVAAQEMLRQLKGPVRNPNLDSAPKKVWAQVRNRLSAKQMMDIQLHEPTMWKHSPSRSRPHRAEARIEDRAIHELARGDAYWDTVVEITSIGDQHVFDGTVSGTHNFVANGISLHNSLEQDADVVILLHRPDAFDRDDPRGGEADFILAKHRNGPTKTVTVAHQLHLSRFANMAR

Protein RecA = target: T2, Protein RecA (Mycobacterium tuberculosis, UniProt P9WHJ3); assay: Fluorescence Cell-Free Homogeneous Dose Retest to Identify Inhibitors of RecA-Intein Splicing Activity. [Related pubchem assays (depositor defined):AID2097, AID2223, AID489010, AID492950]
T2 sequence (P9WHJ3 whole entry): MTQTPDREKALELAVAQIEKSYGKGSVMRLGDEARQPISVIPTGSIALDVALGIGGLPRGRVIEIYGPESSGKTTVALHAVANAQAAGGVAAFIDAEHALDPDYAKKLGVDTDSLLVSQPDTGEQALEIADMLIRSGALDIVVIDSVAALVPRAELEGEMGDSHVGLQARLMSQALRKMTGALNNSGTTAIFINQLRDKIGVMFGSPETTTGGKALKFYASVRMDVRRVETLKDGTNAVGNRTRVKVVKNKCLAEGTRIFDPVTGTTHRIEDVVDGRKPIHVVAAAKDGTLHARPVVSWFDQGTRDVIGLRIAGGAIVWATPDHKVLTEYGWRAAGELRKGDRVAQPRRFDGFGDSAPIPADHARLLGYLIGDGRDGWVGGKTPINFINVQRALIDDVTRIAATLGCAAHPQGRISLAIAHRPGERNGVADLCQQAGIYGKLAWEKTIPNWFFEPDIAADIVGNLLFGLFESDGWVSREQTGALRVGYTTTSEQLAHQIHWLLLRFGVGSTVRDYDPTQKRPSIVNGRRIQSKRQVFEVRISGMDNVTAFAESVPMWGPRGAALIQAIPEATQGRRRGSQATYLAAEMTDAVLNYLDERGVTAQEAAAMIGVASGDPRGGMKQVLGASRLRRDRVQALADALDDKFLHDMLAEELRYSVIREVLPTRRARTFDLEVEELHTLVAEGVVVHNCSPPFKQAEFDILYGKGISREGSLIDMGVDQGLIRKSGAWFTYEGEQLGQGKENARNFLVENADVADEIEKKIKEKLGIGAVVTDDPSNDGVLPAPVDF

Caspase-3 = target: T3, Caspase-3 (Homo sapiens, UniProt P42574);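 also: Dose-response selectivity test against caspase-3 for candidate inhibitors of sentrin-specific proteases (SENPs)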
T3 sequence (P42574 whole entry): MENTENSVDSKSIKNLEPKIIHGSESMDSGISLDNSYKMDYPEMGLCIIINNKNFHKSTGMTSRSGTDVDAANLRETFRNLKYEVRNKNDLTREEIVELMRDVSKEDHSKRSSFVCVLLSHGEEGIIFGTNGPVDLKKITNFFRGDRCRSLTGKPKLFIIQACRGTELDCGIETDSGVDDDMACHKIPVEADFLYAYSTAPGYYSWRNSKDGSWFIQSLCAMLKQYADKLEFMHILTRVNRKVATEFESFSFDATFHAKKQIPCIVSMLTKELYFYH

Row | SMILES | AC50 (INS1) | AC50 [1] | EC50 (Protein RecA) | IC50 (Caspase-3)
1 | COC(=O)C[C@]1(C(=O)OC)CN(C#N)N(c2ccc(Cl)cc2)C12c1ccccc1-c1ccccc12 | 2770 nM (active) | 1830 nM (active) | 1770 nM (active) | 
2 | O=C(Nc1ccc(C#Cc2ccccc2)cc1)C1CC1 |  |  |  | 43600 nM (active)
3 | CCCCn1c(NC(=O)c2ccco2)c(C(=O)OCC)c2nc3ccccc3nc21 |  |  |  | 15800 nM (active)
4 | Cc1ccccc1NC1=C/C(=N\S(=O)(=O)c2ccc(C(=O)O)cc2)c2ccccc2C1=O | 4380 nM (active) | 105000 nM (active) | 3670 nM (active) | 
5 | Cc1ccc(NC2=C/C(=N/S(=O)(=O)c3cccs3)c3ccccc3C2=O)cc1 | 720 nM (active) | 301 nM (active) | 119 nM (active) | 2100 nM (active)
6 | COc1ccc(-c2cc(-c3ccc(C)cc3)[nH]n2)c(O)c1 |  |  |  | 76500 nM (active)

Reference: ChEMBL document CHEMBL1201862, “PubChem BioAssay data set” (2004)
